Laboratory results as given in patent US7348328B2, “MCH antagonists for the treatment of obesity” (Schering Corporation, priority 2001, dated 2008).
Where two headings read alike, the source gives them in different places.

Target: T1, MCH receptor (Homo sapiens, UniProt Q99705)
T1 construct: expressed in transfected cells; host or cells: CHO cells (membranes)
Assay: MCH Receptor Binding Assay
Description: MCH Receptor Binding Assay:
Membranes from CHO cells expressing the MCH receptor were prepared by lysing cells with 5 mM HEPES for 15 min at 4C. Cell lysates were centrifuged ([…], 15 min) and the pellet was resuspended in 5 mM HEPES. For each 96-well plate (Microlite, Dynex Technologies), 1 mg of cell membranes were incubated with 10 mg of wheat germ agglutinin SPA beads (Amersham) for 5 min at 4 C. in a volume of 10 ml of binding buffer (25 mM HEPES, 10 mM MGCl2, 10 mM NaCl, 5 mM MnCl2, 0.1% BSA). The membrane/bead mixture was centrifuged (1500×g, 3.5 min), the supernatant was aspirated, and the pellet was resuspended in 10 ml binding buffer. The centrifugation, aspiration and resuspension were then repeated. […] Nonspecific binding was determined by including 1 μM MCH in the binding reaction. The binding reaction was incubated at room temperature for 2 h. Plates were then analyzed in a TOPCOUNT microplate scintillation counter (Packard). Data was analyzed and Ki values were determined using GraphPad Prim.

[1] = Table 1b, preferred compounds, read-out: MCH R1 Ki

T1 sequence (Q99705 whole entry): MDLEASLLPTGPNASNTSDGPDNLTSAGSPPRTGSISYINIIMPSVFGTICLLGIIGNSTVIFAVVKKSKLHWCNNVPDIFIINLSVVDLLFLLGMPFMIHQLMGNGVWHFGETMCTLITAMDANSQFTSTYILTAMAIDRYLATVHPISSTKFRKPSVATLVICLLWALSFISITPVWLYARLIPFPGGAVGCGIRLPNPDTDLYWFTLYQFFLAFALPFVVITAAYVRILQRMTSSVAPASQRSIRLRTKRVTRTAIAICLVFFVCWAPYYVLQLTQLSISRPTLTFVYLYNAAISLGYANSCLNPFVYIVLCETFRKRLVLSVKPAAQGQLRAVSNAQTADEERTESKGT

Structure (SMILES) | Ki (Binding Activity, membranes from CHO cells expressing the MCH receptor, [125I]-MCH, read-out: MCH Ki) [nM] | Ki [1] [nM]
N#Cc1cccc([C@]23CC[C@@H](N(CCCCN4CCCCC4)C(=O)Nc4ccc(F)c(C(F)(F)F)c4)[C@H]2C3)c1 [Example 227] | 1.6 | 
N#Cc1cccc([C@]23CC[C@@H](N(CCN4CC[C@@H](O)C4)C(=O)Nc4ccc(F)c(C(F)(F)F)c4)[C@H]2C3)c1 [drawing 636] |  | 11
N#Cc1cccc([C@@]23CC[C@@H](N(CCCN4CC[C@@H](O)C4)C(=O)Nc4ccc(F)c(Cl)c4)CC2C3)c1 (stereo partly shown) [drawing 646] |  | 3
N#Cc1cccc([C@@]23CC[C@@H](N(CCN4CC[C@@H](O)C4)C(=O)Nc4ccc(F)c(C(F)(F)F)c4)CC2C3)c1 (stereo partly shown) [drawing 651] |  | 6.2
N#Cc1cccc([C@@]23CC[C@@H](N(CCN4CC[C@@H](O)C4)C(=O)Nc4ccc(F)c(C(F)(F)F)c4)CC2C3)c1 (stereo partly shown) [drawing 655] |  | 16
N#Cc1cccc([C@@]23CC[C@@H](N(CCCN4CC[C@@H](O)C4)C(=O)Nc4ccc(F)c(Cl)c4)CC2C3)c1 (stereo partly shown) [drawing 656] |  | 1.8
N#Cc1cccc([C@]23CC[C@@H](N(CCN4CC[C@@H](O)C4)C(=O)Nc4ccc(F)c(C(F)(F)F)c4)[C@H]2C3)c1 [drawing 669] |  | 7.1
N#Cc1cccc([C@]23CC[C@@H](N(CCN4CCCCC4)C(=O)Nc4ccc(F)c(Cl)c4)[C@H]2C3)c1 [drawing 671] |  | 4.1
CN(C)CCN(C(=O)Nc1ccc(F)c(Cl)c1)[C@@H]1CC[C@]2(c3cccc(C#N)c3)C[C@H]12 [drawing 673] |  | 14
N#Cc1cccc([C@]23CC[C@@H](N(CCCCN4CCCC4)C(=O)Nc4ccc(F)c(Cl)c4)[C@H]2C3)c1 [drawing 675] |  | 3.9
